{
  "source": "patent US12290588B2",
  "about": "“Peptide having activity of improving skin condition and use thereof” (CAREGEN CO., LTD., priority 2019, dated 2025)",
  "key": {"PGC-1α": {"test_system": "PGC-1α", "test": "RT-PCR of PGC-1α expression in fibroblasts", "format": "cell-based", "conditions": "NIH3T3 mouse fibroblasts, peptide 10, 50 or 100 μM, 24 hours, PCR (FIG. 2)", "experimental": "(§1) In this example, an effect the peptide according to an embodiment on the cellular activity of fibroblasts was to be confirmed by measuring the expression levels of PPAR-γ, PPAR-δ, and PGC-1α, which are mitochondrial biogenesis-related genes. In detail, NIH3T3 mouse fibroblasts were seeded in a 6-well plate at a density of 3×10^5 cells/well, and cultured for 16 hours. Afterwards, the culture medium was replaced with a serum-free medium, the peptide consisting of the amino acid sequence of SEQ ID NO: 1 was added thereto at a concentration of 10 μM, 50 μM, or 100 μM, and the cells were cultured for 24 hours. Then, mRNA was extracted from the cultured cells, and reverse-transcribed into cDNA by using a cDNA synthesis kit and PCR pre-mix (Intron, Korea). Afterwards, a polymerase chain reaction (PCR) was performed by using the cDNA and primers of PPAR-γ, PPAR-δ, and PGC-1α. Meanwhile, a control group and positive groups were used in the same manner as in Example 2, and the nucleotide sequences of the primers used herein are shown in Table 2."}, "AQP3": {"test_system": "AQP3", "test": "RT-PCR of AQP3 expression in UV-irradiated keratinocytes", "format": "cell-based, human", "conditions": "HaCaT keratinocytes, UV 20 J/cm^2, peptide 10, 50 or 100 μM before and 6 hours after irradiation, PCR (FIG. 7)", "experimental": "(§2) In this example, changes in the cellular activity of fibroblasts were evaluated through the expression of Col1a1, Fibronectin, and Elastin, which are known as components of the dermis. Also, changes in the cellular activity of keratinocytes were evaluated through the expression of SIRT1, which is an anti-aging gene, and AQP3, which is a component of the skin barrier. Based on the evaluation results, the effect of the peptide according to an embodiment on the restoration of the cellular activity of the fibroblasts and keratinocytes was confirmed. In detail, NIH3T3 mouse fibroblasts or HaCaT human keratinocytes were respectively seeded in a 6-sell plate at a density of 3×10^5 cells/well, and cultured for 16 hours. Afterwards, the culture medium was replaced with a serum-free medium, the peptide consisting of the amino acid sequence of SEQ ID NO: 1 was added thereto at a concentration of 10 μM, 50 μM, or 100 μM, and the cells were cultured for 1 hour. Each well containing the cultured cells was washed with PBS, and the NIH3T3 cells or the HaCaT cells were respectively irradiated with ultraviolet light of 6 J/cm^2 or 20 J/cm^2, so as to induce inhibition of the cellular activity. […]"}, "Col1a1": {"test_system": "Col1a1", "test": "RT-PCR of Col1a1 expression in UV-irradiated fibroblasts", "format": "cell-based, mouse", "conditions": "NIH3T3 fibroblasts, UV 6 J/cm^2, peptide 10, 50 or 100 μM before and 6 hours after irradiation, PCR (FIG. 6)", "experimental": "as §2"}, "cleaved PARP-1": {"test_system": "cleaved PARP-1", "test": "Western blotting of cleaved PARP-1 in UV-irradiated keratinocytes", "format": "cell-based, human", "conditions": "HaCaT keratinocytes, UV 15 J/cm^2, peptide 10, 50 or 100 μM before and 24 hours after irradiation, western blotting (FIG. 4)", "experimental": "(§3) NIH3T3 mouse fibroblasts or HaCaT human keratinocytes were respectively seeded in a 6-sell plate at a density of 3×10^5 cells/well, and cultured for 16 hours. Afterwards, the culture medium was replaced with a serum-free medium, the peptide consisting of the amino acid sequence of SEQ ID NO: 1 was added thereto at a concentration of 10 μM, 50 μM, or 100 μM, and the cells were cultured for 1 hour. Each well containing the cultured cells was washed with phosphate buffered saline (PBS), and the NIH3T3 cells or HaCaT cells were respectively irradiated with ultraviolet light of 6 J/cm^2 or 15 J/cm^2, so as to induce an increase in the expression of apoptosis proteins. Afterwards, the culture medium was replaced with a serum-free medium, the peptide consisting of the amino acid sequence of SEQ ID NO: 1 was added thereto at a concentration of 10 μM, 50 μM, or 100 μM, and the cells were cultured for 24 hours. Cell lysates were obtained by adding a lysis buffer to the cultured cells, and then, western blotting was performed thereon by using cleaved PARP-1 and cleaved caspase-3 antibodies (Santacruz biotechnology, USA). Meanwhile, a non-treated group (Con) was used as a control group. […]"}, "MMP-1": {"test_system": "MMP-1", "test": "Western blotting of MMP-1 in UV-irradiated fibroblasts", "format": "cell-based, mouse", "conditions": "NIH3T3 fibroblasts, UV 6 J/cm^2, peptide 10, 50 or 100 μM before and 24 hours after irradiation, western blotting (FIG. 5)", "experimental": "(§4) NIH3T3 mouse fibroblasts were seeded in a 6-well plate at a density of 3×10^5 cells/well, and cultured for 16 hours. Afterwards, the culture medium was replaced with a serum-free medium, the peptide consisting of the amino acid sequence of SEQ ID NO: 1 was added thereto at a concentration of 10 μM, 50 μM, or 100 μM, and the cells were cultured for 1 hour. Each well containing the cultured cells was washed with PBS, and the NIH3T3 cells were irradiated with ultraviolet light of 6 J/cm^2, so as to induce an increase in the expression of MMP-1 and MMP-2. Afterwards, the culture medium was replaced with a serum-free medium, the peptide consisting of the amino acid sequence of SEQ ID NO: 1 was added thereto at a concentration of 10 μM, 50 μM, or 100 μM, and the cells were cultured for 24 hours. Afterwards, cell lysates were obtained by adding a lysis buffer to the cultured cells, and then, western blotting was performed thereon by using MMP-1 antibodies (cell signaling, USA) to measure the expression of MMP-1."}, "COX-2": {"test_system": "COX-2", "test": "RT-PCR of COX-2 expression in UV-irradiated keratinocytes", "format": "cell-based, human", "conditions": "HaCaT keratinocytes, peptide 10, 50 or 100 μM for 1 hour, UV 15 J/cm^2, PCR (FIG. 8)", "experimental": "(§5) HaCaT human keratinocytes were seeded in a 6-well plate at a density of 3×10^5 cells/well, and cultured for 16 hours. Afterwards, the culture medium was replaced with a serum-free medium, the peptide consisting of the amino acid sequence of SEQ ID NO: 1 was added thereto at a concentration of 10 μM, 50 μM, or 100 μM, and the cells were cultured for 1 hour. Each well containing the cultured cells was washed with PBS, and the HaCaT cells were irradiated with ultraviolet light of 15 J/cm^2, so as to induce an increase in the expression of inflammatory cytokine which is an inflammatory factor. Then, mRNA was extracted from the cultured cells, and reverse-transcribed into cDNA by using a cDNA synthesis kit and PCR pre-mix (Intron, Korea). Afterwards, PCR was performed by using the cDNA and primers of TNF-α, COX-2, IL-1β, and IL-6. Meanwhile, a control group and a positive group were used in the same manner as in Example 4, and the nucleotide sequences of the primers used herein are shown in Table 5."}, "Elastin": {"test_system": "Elastin", "test": "RT-PCR of Elastin expression in UV-irradiated fibroblasts", "format": "cell-based, mouse", "conditions": "NIH3T3 fibroblasts, UV 6 J/cm^2, peptide 10, 50 or 100 μM before and 6 hours after irradiation, PCR (FIG. 6)", "experimental": "as §2"}, "MMP-2": {"test_system": "MMP-2", "test": "Gelatin zymography of MMP-2 activity in UV-irradiated fibroblasts", "format": "cell-based, mouse", "conditions": "NIH3T3 fibroblasts, UV 6 J/cm^2, peptide 10, 50 or 100 μM before and 24 hours after irradiation, gelatin zymography (FIG. 5)", "experimental": "as §4\nMeanwhile, the cell lysates were subjected to gelatin zymography to measure the activity of MMP-2. In detail, after protein electrophoresis (SDS-PAGE) was performed by using 2 mg/ml of gelatin as a substrate. […]"}, "TNF-α": {"test_system": "TNF-α", "test": "RT-PCR of TNF-α expression in UV-irradiated keratinocytes", "format": "cell-based, human", "conditions": "HaCaT keratinocytes, peptide 10, 50 or 100 μM for 1 hour, UV 15 J/cm^2, PCR (FIG. 8)", "experimental": "as §5"}, "PPAR-δ": {"test_system": "PPAR-δ", "test": "RT-PCR of PPAR-δ expression in fibroblasts", "format": "cell-based", "conditions": "NIH3T3 mouse fibroblasts, peptide 10, 50 or 100 μM, 24 hours, PCR (FIG. 2)", "experimental": "as §1"}, "Fibronectin": {"test_system": "Fibronectin", "test": "RT-PCR of Fibronectin expression in UV-irradiated fibroblasts", "format": "cell-based, mouse", "conditions": "NIH3T3 fibroblasts, UV 6 J/cm^2, peptide 10, 50 or 100 μM before and 6 hours after irradiation, PCR (FIG. 6)", "experimental": "as §2"}, "PPAR-γ": {"test_system": "PPAR-γ", "test": "RT-PCR of PPAR-γ expression in fibroblasts", "format": "cell-based", "conditions": "NIH3T3 mouse fibroblasts, peptide 10, 50 or 100 μM, 24 hours, PCR (FIG. 2)", "experimental": "as §1"}, "IL-6": {"test_system": "IL-6", "test": "RT-PCR of IL-6 expression in UV-irradiated keratinocytes", "format": "cell-based, human", "conditions": "HaCaT keratinocytes, peptide 10, 50 or 100 μM for 1 hour, UV 15 J/cm^2, PCR (FIG. 8)", "experimental": "as §5"}, "cleaved caspase-3 [1]": {"test_system": "cleaved caspase-3", "test": "Western blotting of cleaved caspase-3 in UV-irradiated keratinocytes", "format": "cell-based, human", "conditions": "HaCaT keratinocytes, UV 15 J/cm^2, peptide 10, 50 or 100 μM before and 24 hours after irradiation, western blotting (FIG. 4)", "experimental": "as §3"}, "IL-1β": {"test_system": "IL-1β", "test": "RT-PCR of IL-1β expression in UV-irradiated keratinocytes", "format": "cell-based, human", "conditions": "HaCaT keratinocytes, peptide 10, 50 or 100 μM for 1 hour, UV 15 J/cm^2, PCR (FIG. 8)", "experimental": "as §5"}, "cleaved caspase-3 [2]": {"test_system": "cleaved caspase-3", "test": "Western blotting of cleaved caspase-3 in UV-irradiated fibroblasts", "format": "cell-based, mouse", "conditions": "NIH3T3 fibroblasts, UV 6 J/cm^2, peptide 10, 50 or 100 μM before and 24 hours after irradiation, western blotting (FIG. 3)", "experimental": "as §3"}, "procollagen 1α": {"test_system": "procollagen 1α", "test": "Procollagen 1α ELISA in fibroblast medium", "format": "cell-based", "conditions": "NIH3T3 mouse fibroblasts, peptide 10, 50 or 100 μM, 24 hours, ELISA of medium (FIG. 1)", "experimental": "NIH3T3 mouse fibroblasts were seeded in a 6-well plate at a density of 5×10^3 cells/well, and cultured for 16 hours. Afterwards, the culture medium was replaced with a serum-free medium, the peptide consisting of the amino acid sequence of SEQ ID NO: 1 was added thereto at a concentration of 10 μM, 50 μM, or 100 μM, and the cells were cultured for 24 hours. Then, the amount of procollagen 1α in the medium was measured by using a Procollagen 1α ELISA kit (Us biological lifescience, USA). Meanwhile, a non-treated group (Con) was used as a control group, and a group to which 100 nM of bFGF was added and a group to which 5 ng/ml of TGF-β1 was added were used as positive control groups."}, "SIRT1": {"test_system": "SIRT1", "test": "RT-PCR of SIRT1 expression in UV-irradiated keratinocytes", "format": "cell-based, human", "conditions": "HaCaT keratinocytes, UV 20 J/cm^2, peptide 10, 50 or 100 μM before and 6 hours after irradiation, PCR (FIG. 7)", "experimental": "as §2"}},
  "data": [
    {"sequence": "ECEELEEK (Peptide 1) [SEQ ID NO: 1]", "values": [
      {"measurement": "expression of PGC-1α", "setting": "PGC-1α", "result": "increased"},
      {"measurement": "expression of AQP3 reduced by ultraviolet irradiation", "setting": "AQP3", "result": "restored"},
      {"measurement": "expression of Col1 a1 inhibited by ultraviolet irradiation", "setting": "Col1a1", "result": "restored back to normal levels"},
      {"measurement": "expression of cleaved PARP-1 increased by ultraviolet irradiation", "setting": "cleaved PARP-1", "result": "significantly reduced"},
      {"measurement": "expression of MMP-1 increased by ultraviolet irradiation", "setting": "MMP-1", "result": "reduced"},
      {"measurement": "expression of COX-2 increased by ultraviolet irradiation", "setting": "COX-2", "result": "reduced"},
      {"measurement": "expression of Elastin inhibited by ultraviolet irradiation", "setting": "Elastin", "result": "restored back to normal levels"},
      {"measurement": "activity of MMP-2 increased by ultraviolet irradiation", "setting": "MMP-2", "result": "reduced"},
      {"measurement": "expression of TNF-α increased by ultraviolet irradiation", "setting": "TNF-α", "result": "reduced"},
      {"measurement": "expression of PPAR-δ", "setting": "PPAR-δ", "result": "increased"},
      {"measurement": "expression of Fibronectin inhibited by ultraviolet irradiation", "setting": "Fibronectin", "result": "restored back to normal levels"},
      {"measurement": "expression of PPAR-γ", "setting": "PPAR-γ", "result": "increased"},
      {"measurement": "expression of IL-6 increased by ultraviolet irradiation", "setting": "IL-6", "result": "reduced"},
      {"measurement": "expression of cleaved caspase-3 increased by ultraviolet irradiation", "setting": "cleaved caspase-3 [1]", "result": "significantly reduced"},
      {"measurement": "expression of IL-1β increased by ultraviolet irradiation", "setting": "IL-1β", "result": "reduced"},
      {"measurement": "expression of cleaved caspase-3 increased by ultraviolet irradiation", "setting": "cleaved caspase-3 [2]", "result": "reduced"},
      {"measurement": "expression of procollagen 1α", "setting": "procollagen 1α", "result": "increased"},
      {"measurement": "expression of SIRT1 reduced by ultraviolet irradiation", "setting": "SIRT1", "result": "restored"}
    ]}
  ]
}
